Read-outs that look alike come from different tables or passages of the source. Where no end group is shown, it is not given here.
Assays:
[1] = target: segments of rabbit duodenum (Oryctolagus cuniculus, UniProt G1T803); assay: Rabbit duodenal smooth muscle strip tissue bath assay (contractile response); type: cell-based; conditions: contractility; negative logarithm of dose giving 50% of maximal response to motilin; compounds tested 10^-11 to 10^-4 M
Method: The experimental protocol consisted of an equilibration period of 1 hour: a challenge with 10^-4 M acetylcholine followed by a wash-out period; a cumulative dose-response curve of a compound with, at the end, the addition of 10^-7 M motilin; and finally 10^-4 M acetylcholine. If the final response to 10^-4 M acetylcholine differed by more than 5% from the initial response, the results were discarded.

[2] = target: T1, motilin receptor (rabbit antral smooth muscle membranes) (Oryctolagus cuniculus, UniProt G1T803); assay: Motilin receptor binding affinity: displacement of [125I-Tyr7,Nle13]motilin(porcine)
T1 construct: from tissue; host or cells: rabbit antral smooth muscle membranes
Method: The motilin receptor binding affinity of the peptides of this invention was determined by using the general procedure of Bormans, Peelers and Vantrappen, Regul. Pept., 15, 143-153 (1986). The ability of the peptides to displace [^125 I-Tyr^7,Nle^13 ]motilin(porcine) bound to rabbit antral smooth muscle membranes, was determined by testing twice, each time in duplicate, at concentrations ranging from 10^-11 to 10^-4 M. The concentration displacing 50% of the label (IC50) was determined by fitting the data to the equation describing displacement, assuming a single class of motilin receptors to which labeled and non-labeled motilin bind with equal affinity and non-cooperatively. Fitting was performed using the iterative least-squares procedure of the SAS-software package (SAS Institute, Inc., Cary, N.C., U.S.A.). […] The concentration displacing 50% of the label is expressed using its negative logarithm (pIC50).

motilin receptor = target: T2, motilin receptor (Oryctolagus cuniculus, UniProt G1T803); assay: Motilin receptor antagonism: contractile response of rabbit duodenum to motilin in presence of compound; type: cell-based
T2 construct: segments of rabbit duodenum; from tissue; host or cells: segments of rabbit duodenum
Method: To determine motilin receptor antagonism, the contractile response of segments of rabbit duodenum to motilin was determined isotonically in the tissue bath in the presence of a fixed concentration of the compound of interest. The experimental protocol consisted of an equilibration period of 1 hour; a challenge with 10^-4 M acetylcholine followed by a wash-out period; a cumulative motilin dose-response curve in the presence of the motilin receptor antagonist; and finally a challenge with 10^-4 M acetylcholine. If the final response to 10^-4 M acetylcholine differed by more than 5% from the initial response, the results were discarded. The point corresponding to 50% of the maximal response to motilin (Emax) was determined by fitting the equation
through the data points. The dose of motilin giving 50% of the response is expressed using its negative logarithm (pEC50). Compounds of interest were tested at concentrations of 10^-8 to 10^-5 M.

[3] = negative logarithm of concentration displacing 50% of [125I-Tyr7,Nle13]motilin(porcine) from rabbit antral smooth muscle membranes, read-out: pIC50 (converted)

T1 sequence (G1T803 1-400): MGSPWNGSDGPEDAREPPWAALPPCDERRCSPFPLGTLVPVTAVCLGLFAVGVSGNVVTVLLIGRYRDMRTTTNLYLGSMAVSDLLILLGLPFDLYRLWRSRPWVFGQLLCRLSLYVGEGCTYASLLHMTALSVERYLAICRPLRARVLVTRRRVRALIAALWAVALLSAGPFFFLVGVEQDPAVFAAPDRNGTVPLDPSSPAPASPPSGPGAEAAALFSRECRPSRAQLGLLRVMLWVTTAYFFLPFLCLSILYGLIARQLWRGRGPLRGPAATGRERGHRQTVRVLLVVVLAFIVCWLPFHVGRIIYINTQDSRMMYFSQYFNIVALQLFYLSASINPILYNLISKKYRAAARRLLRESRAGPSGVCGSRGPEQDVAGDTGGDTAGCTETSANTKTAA
segments of rabbit duodenum, sequence (G1T803 1-400): as above
T2 sequence (G1T803 1-400): as above

| Substance | pEC50 [1] | IC50 [2, 3] | block of the full contractile response to motilin (motilin receptor; compound at 10^-5 M) | shift of the dose-response curve of motilin (motilin receptor; compound at 10^-6 M) | IC50 [2] |
| --- | --- | --- | --- | --- | --- |
| FVFIFTYGELQRLQEKERNKGQ [[Phe^3,Leu^13]pMOT, [3-Phenylalanine, 13-leucine]motilin (Porcine), Pentakis-trifluoroacetate Salt] | < 4.5 |  |  |  | 0.776 nM |
| FVIIFTYGELQRLQEKERNKGQ [[Ile^3, Leu^13]pMOT] | < 4.5 |  |  |  | 15.1 nM |
| H-FLFIFTYGELQRLQ-OH [[Leu^2, Phe^3, Leu^13]pMOT(1-14), H-Phe-Leu-Phe-Ile-Phe-Thr-Tyr-Gly-Glu-Leu-Gln-Arg-Leu-Gln-OH] | < 4.5 | 33.9 nM |  |  |  |
| H-FVFIFTYGELQRLQ-OH [[Phe^3, Leu^13]pMOT(1-14), H-Phe-Val-Phe-Ile-Phe-Thr-Tyr-Gly-Glu-Leu-Gln-Arg-Leu-Gln-OH] | < 4.5 | 16.2 nM | completely blocked | shifted by about one log unit |  |

Second part, led by results:

| pEC50 [1] | IC50 [2, 3] | block of the full contractile response to motilin (motilin receptor; compound at 10^-5 M) | shift of the dose-response curve of motilin (motilin receptor; compound at 10^-6 M) | Substance | IC50 [2] |
| --- | --- | --- | --- | --- | --- |
| < 4.5 | 15.8 nM |  |  | H-FVFIATYGELQRLQ-OH [[Phe^3, Ala^5, Leu^13]pMOT(1-14), H-Phe-Val-Phe-Ile-Ala-Thr-Tyr-Gly-Glu-Leu-Gln-Arg-Leu-Gln-OH] |  |
| < 4.5 | 30.9 nM |  |  | H-FVFIFTFGELQRLQ-OH [[Phe^3, Phe^7, Leu^13]pMOT(1-14), H-Phe-Val-Phe-Ile-Phe-Thr-Phe-Gly-Glu-Leu-Gln-Arg-Leu-Gln-OH] |  |
| < 4.5 | 15.8 nM |  |  | H-FVFIFTYGELARLQ-OH [[Phe^3, Ala^11, Leu^13]pMOT(1-14), H-Phe-Val-Phe-Ile-Phe-Thr-Tyr-Gly-Glu-Leu-Ala-Arg-Leu-Gln-OH] |  |
| < 4.5 | 1.58 nM |  |  | H-FVFIFTYGELQRLK-NH2 [[Phe^3, Leu^13, Lys^14]pMOT(1-14) amide, H-Phe-Val-Phe-Ile-Phe-Thr-Tyr-Gly-Glu-Leu-Gln-Arg-Leu-Lys-NH2] |  |
| < 4.5 | 3.98 nM |  |  | H-FVFLFTYGELQRLQ-OH [[Phe^3, Leu^4, Leu^13]pMOT(1-14), H-Phe-Val-Phe-Leu-Phe-Thr-Tyr-Gly-Glu-Leu-Gln-Arg-Leu-Gln-OH] |  |
| < 4.5 | 178 nM |  |  | H-FVLIFTYGELQRLQ-OH [[Leu^3, Leu^13]pMOT(1-14), H-Phe-Val-Leu-Ile-Phe-Thr-Tyr-Gly-Glu-Leu-Gln-Arg-Leu-Gln-OH] |  |
